Laboratory results from patent US10138253B2, “Imidazopyridine macrocycles as inhibitors of human immunodeficiency virus replication” (priority 2015, dated 2018).
pEC50: −log10 of the molar value.

tested on: NL-RLuc virus; test: Inhibition of HIV replication (NL-RLuc virus, luciferase readout, MT-2 cells); format: cell-based; details: Human immunodeficiency virus 1, MT2, 120 h, read-out: Activity
Excerpt: Inhibition of HIV Replication:
A recombinant NL-RLuc proviral clone was constructed in which a section of the nef gene from NL4-3 was replaced with the Renilla Luciferase gene. This virus is fully infectious and can undergo multiple cycles of replication in cell culture. In addition, the luciferous reporter provides a simple and easy method for quantitating the extent of virus growth and consequently, the antiviral activity of test compounds. The plasmid pNLRLuc contains the proviral NL-Rluc DNA cloned into pUC18 at the PvuII site. The NL-RLuc virus was prepared by transfection of 293T cells with the plasmid pNLRLuc. Transfections were performed using the LipofectAMINE PLUS kit from Invitrogen (Carlsbad, Calif.) according to the manufacturer and the virus generated was titered in MT-2 cells. For susceptibility analyses, the titrated virus was used to infect MT-2 cells in the presence of compound, and after 5 days of incubation, cells were processed and quantitated for virus growth by the amount of expressed luciferase. Assay media was RPMI 1640 supplemented with 10% heat inactivated fetal bovine serum (FBS), 100 units/ml penicillin G/100 units/ml streptomycin, 10 mM HEPES buffer pH 7.55 and 2 mM L-glutamine. The results from at least 2 experiments were used to calculate the EC50 values. Luciferase was quantitated using the Dual Luciferase kit from Promega (Madison, Wis.). Susceptibility of viruses to compounds was determined by incubation in the presence of serial dilutions of the compound. The 50% effective concentration (EC50) was calculated by using the exponential form of the median effect equation where (Fa)=1/[1+(ED50/drug conc.)^m] (Johnson V A, Byington R T. Infectivity Assay. In Techniques in HIV Research. ed. Aldovini A, Walker B D. 71-76. New York: Stockton Press. 1990). Activity equal to A refers to a compound having an EC50≤100 nM, while B and C denote compounds having an EC50 between 100 nM and luM (B) or >1 uM (C).

| Structure (SMILES) | pEC50 |
| --- | --- |
| Cc1c([C@H](OC(C)(C)C)C(=O)O)c2n3c(Cl)c(nc3c1Cn1nccn1)-c1cccc(c1)-c1cc(F)c(F)cc1O[C@@H](C)COCCOC1(C)CCN2CC1 [Example 13, (2S)-2-(tert-butoxy)-2-[(22S)-8-chloro-17,18-difluoro-4,22,28-trimethyl-5-(2H-1,2,3-triazol-2-ylmethyl)-21,24,27-trioxa-1,7,34-triazahexacyclo[26.2.2.1^6,^9.1^1^0,^1^4.0^2,^7.0^1^5,^2^0]tetratriaconta-2,4,6(34),8,10(33),11,13,15(20),16,18-decaen-3-yl]acetic Acid] | > 7.00 |
| C=C(C)c1c(C)c([C@H](OC(C)(C)C)C(=O)O)c2n3cc(nc13)-c1cccc(c1)-c1cc(F)c(F)cc1O[C@@H](C)COCCOC1(C)CCN2CC1 [Example 14, (2S)-2-(tert-Butoxy)-2-[(22S)-17,18-difluoro-4,22,28-trimethyl-5-(prop-1-en-2-yl)-21,24,27-trioxa-1,7,34-triazahexacyclo[26.2.2.1^6,^9.1^1^0,^1^4.0^2,^7.0^1^5,^2^0]tetratriaconta-2,4,6(34),8,10(33),11,13,15(20),16,18-decaen-3-yl]acetic Acid] | > 7.00 |
| Cc1c([C@H](OC(C)(C)C)C(=O)O)c2n3c(C)c(nc3c1C)-c1cccc(c1)-c1cc(F)c(F)cc1O[C@@H](C)COCCOC1(C)CCN2CC1 [Example 15, (2S)-2-(tert-Butoxy)-2-[(22S)-17,18-difluoro-4,5,8,22,28-pentamethyl-21,24,27-trioxa-1,7,34-triazahexacyclo[26.2.2.1^6,^9.1^1^0,^1^4.0^2,^7.0^1^5,^2^0]tetratriaconta-2,4,6(34),8,10(33),11,13,15(20),16,18-decaen-3-yl]acetic Acid] | > 7.00 |
| Cc1c([C@H](OC(C)(C)C)C(=O)O)c2n3cc(nc3c1C#N)-c1cccc(c1)-c1cc(F)c(F)cc1O[C@@H](C)COCCOC1(C)CCN2CC1 [Example 17, (2S)-2-(tert-Butoxy)-2-[(22S)-5-cyano-17,18-difluoro-4,22,28-trimethyl-21,24,27-trioxa-1,7,34-triazahexacyclo[26.2.2.1^6,^9.1^1^0,^1^4.0^2,^7.0^1^5,^2^0]tetratriaconta-2,4,6(34),8,10(33),11,13,15(20),16,18-decaen3-yl]acetic Acid] | > 7.00 |
| Cc1cc(F)c2c(c1)O[C@@H](C)COCCOC1(C)CCN(CC1)c1c([C@H](OC(C)(C)C)C(=O)O)c(C)cc3nc(cn13)-c1cccc-2c1 [Example 18, (2S)-2-(tert-Butoxy)-2-[(22S)-16-fluoro-4,18,22,28-tetramethyl-21,24,27-trioxa-1,7,34-triazahexacyclo[26.2.2.1^6,^9.1^1^0,^1^4.0^2,^7.0^1^5,^2^0]tetratriaconta-2,4,6(34),8,10(33),11,13,15(20),16,18-decaen-3-yl]acetic Acid] | > 7.00 |
| Cc1cc(F)c2c(c1)O[C@@H](C)COCCOC1(C)CCN(CC1)c1c([C@H](OC(C)(C)C)C(=O)O)c(C)c(C)c3nc(cn13)-c1cccc-2c1 [Example 19, (2S)-2-(tert-Butoxy)-2-((6S,Z)-46-fluoro-14,27,28,44,6-pentamethyl-5,8,11-trioxa-2(5,2)-imidazo[1,2-a]pyridina-1(1,4)-piperidina-3(1,3),4(1,2)-dibenzenacycloundecaphane-26-yl)acetic Acid] | > 7.00 |
| Cc1cc(F)c2c(c1)O[C@@H](C)COCCOC1(C)CCN(CC1)c1c([C@H](OC(C)(C)C)C(=O)O)c(C)c(C)c3nc(c(Cl)n13)-c1cccc-2c1 [Example 21, (2S)-2-(tert-Butoxy)-2-((6S,E)-23-chloro-46-fluoro-14,27,28,44,6-pentamethyl-5,8,11-trioxa-2(5,2)-imidazo[1,2-a]pyridina-1(1,4)-piperidina-3(1,3),4(1,2)-dibenzenacycloundecaphane-26-yl)acetic acid] | > 7.00 |

same assay, conditions: Human immunodeficiency virus 1, MT2, 120 h, read-out: EC50 μM

| Structure (SMILES) | EC50 [µM] |
| --- | --- |
| Cc1cc(F)c2c(c1)O[C@@H](C)COCCOC1(C)CCN(CC1)c1c([C@H](OC(C)(C)C)C(=O)O)c(C)c(C)c3nc(c(Cl)n13)-c1cccc-2c1 [Example 21, (2S)-2-(tert-Butoxy)-2-((6S,E)-23-chloro-46-fluoro-14,27,28,44,6-pentamethyl-5,8,11-trioxa-2(5,2)-imidazo[1,2-a]pyridina-1(1,4)-piperidina-3(1,3),4(1,2)-dibenzenacycloundecaphane-26-yl)acetic acid] | 0.002 |
